According to patent US20120136066A1, “Glomerulonephritis Treatment” (AVEXXIN AS, priority 2009, published 2012):

Tests used:
[1] = system: mesangial cells; assay: [3H]thymidine incorporation in mesangial cells (proliferation); type: cell-based, rat; conditions: 24 h; ATP 100 μM, insuline 100 ng/ml or IGF 50 ng/ml, FIGS. 5A and 5B
Procedure: Quiescent cells were stimulated for 24 h with vehicle (DMEM), or 100 μM of ATP in the absence (−) or presence of the indicated concentrations of AVX001 or AVX002, in the presence of [^3H]thymidine. • (B) Cells were stimulated for 24 h with insuline (100 ng/ml) or IGF (50 ng/ml) in the absence (−) or presence of 10 μM of AVX001 or AVX002, in the presence of [^3H]thymidine. Thymidine incorporated into DNA was determined and results are expressed as % of control and are means±S.D. (n=3). Glomerulonephritis is characterized in a first early phase by increased mesangial apoptosis which in a second phase is replaced by an opposite event, i.e. hyperproliferation of mesangial cells. Many previous studies have shown that quiescent mesangial cells in culture can re-enter the cell cycle when exposed to various growth factors, including PDGF, insulin, insulin-like growth factor (IGF), or extracellular nucleotides such as ATP and UTP. […] In the presence of either AKH217 or AVX002, agonist-stimulated [^3H]thymidine incorporation is reduced (FIGS. 5A and 5B). Similar data were also obtained when cells were stimulated with PDGF.

[2] = system: rat renal mesangial cells; assay: cytokine-stimulated NO formation in mesangial cells (Griess Reaction assay); type: cell-based; conditions: IL-1β (1 nM), FIG. 3
Procedure: Quiescent cells were stimulated with either DMEM (−), IL-1β (1 nM; +), in the absence or presence of the indicated concentrations of AKH-217, AVX002, or AACOCF3. Supernatants were collected and taken for nitric oxide (NO) quantification by using a Griess Reaction assay. Data are expressed as μM of NO in the supernatant and are means±S.D. (n=3).
(§1) To see whether this effect is due to altered gene transcription of iNOS, luciferase reporter gene assays were performed to measure iNOS promoter activity. A 4.5 kb fragment of the rat iNOS promoter was kindly provided by Dr. K. F. Beck (pharmazentrum frankfurt).

[3] = system: phospho-p65 (NFκB); assay: NFκB activation, Western blot of phospho-p65; type: cell-based, rat; conditions: IL-1β (2 nM) 30 min, 10 μM compound pretreated 2 h, FIG. 6
Procedure: Quiescent cells were stimulated for 30 min with either vehicle (DMEM), or IL-1β (2 nM) in the absence (−) or presence (+) of AVX001 or AVX002 (10 μM, pretreated 2 h). Thereafter, cell lysates were separated by SDS-PAGE and subjected to a Western blot analysis using a polyclonal antibody against phospho-p65 (NFκB) (upper panel), HuR as a loading control (middle panel), and IκB (lower panel). Data in FIG. 6A show duplicates of one representative experiments. FIGS. 6B and C show the densitometric evaluation of NFκB and IκB bands.
NFκB activation was measured by Western blot analyses by detecting the amount of phospho-p65 which represents the active transcription factor subunit.

[4] = system: IIA-sPLA2; assay: IIA-sPLA2 protein expression and secretion, Western blot of supernatants; type: cell-based, rat; conditions: mesangial cells, IL-1β (1 nM), FIG. 2A
Procedure: (§2) Quiescent cells were stimulated with either DMEM (−), or IL-1β (1 nM) in the absence (−) or presence of AKH-217 (etOH), vehicle control. • (A) Supernatants were taken for protein precipitation and precipitated proteins were separated by SDS-PAGE and subjected to a Western blot analysis using a monoclonal antibody against rat sPLA2. […] Cells were taken for RNA extraction and subjected to quantitative PCR analysis of rat IIA-sPLA2 and 18 S RNA. ΔΔCt values were calculated and results are expressed as % of maximal IL-1β-stimulated response and are means±S.D. (n=3). • (C) Cells were transfected with the sPLA2 promoter construct plus a plasmid coding for the Renilla luciferase. After transfection, cells were stimulated for 24 h with vehicle (−), IL-1β (1 nM), or IL-1β plus 10 μM of AKH-217. sPLA2 promoter activity was calculated and results are expressed as relative luciferase units (RLU) and are means±S.D. (n=3).
(§3) It has been previously shown that the cytokine-induced PGE2 formation in mesangial cells involves both sPLA2 and cPLA2 activation (Pfeilschifter et al., 1993), we then investigated the effect of the inhibitors above on sPLA2 protein and mRNA expressions. […] This effect on sPLA2 mRNA expression was due to a reducing effect on gene transcription. This was shown by a luciferase reporter gene assay that reflected sPLA2 promoter activity.

[5] = system: iNOS; assay: iNOS protein expression, Western blot; type: cell-based, rat; conditions: mesangial cells, IL-1β (1 nM), FIG. 4A
Procedure: (§4) Quiescent cells were stimulated with either vehicle (DMEM), IL-1β (1 nM), in the absence (−) or presence of the indicated concentrations (in μM) of AVX001 and AVX002. EtOH, vehicle control.(A) Cells were taken for protein extraction and equal amount of protein were separated by SDS-PAGE and subjected to a Western blot analysis using a polyclonal antibody against iNOS at a dilution of 1:2000. Data are representative of at least 3 independent experiments giving similar results. (B). Cells were taken for RNA extraction and subjected to quantitative PCR analysis of rat iNOS and 18 S RNA. ΔΔCt values were calculated and results are expressed as % of maximal IL-1β response and are means±S.D (n=3). • (C) Cells were transfected with the rat iNOS promoter construct plus a plasmid coding for the Renilla luciferase. After transfection, cells were stimulated with vehicle (−), IL-1β (1 nM), or IL-1β plus 10 μM of AVX001. iNOS promoter activity was calculated and results are expressed as relative luciferase units (RLU) and are means±S.D. (n=3).
as §1

[6] = system: rat IIA-sPLA2 promoter; assay: sPLA2 promoter activity, luciferase reporter gene assay; type: cell-based; conditions: IL-1β (1 nM), 24 h, 10 μM compound, FIG. 2C
Procedure: as §2
as §3, with “activity. […]” for “activity.”

[7] = system: IIA-sPLA2 mRNA; assay: IIA-sPLA2 mRNA expression, quantitative PCR; type: cell-based, rat; conditions: mesangial cells, IL-1β (1 nM), FIG. 2B
Procedure: as §2, §3

[8] = system: rat iNOS promoter; assay: iNOS promoter activity, luciferase reporter gene assay; type: cell-based; conditions: IL-1β (1 nM), 10 μM compound, FIG. 4C
Procedure: as §4, §1

| SMILES | agonist-stimulated [3H]thymidine incorporation [1] | IL-1β-stimulated NO formation [2] | IL-1β-induced increase of phospho-p65 [3] | IIA-sPLA2 protein expression and secretion [4] | protein expression of iNOS induced by IL-1β [5] | IL-1β-stimulated sPLA2 promoter activity [6] | IIA-sPLA2 mRNA expression [7] | IL-1β-stimulated iNOS promoter activity [8] |
| --- | --- | --- | --- | --- | --- | --- | --- | --- |
| CC/C=C\C/C=C\C/C=C\C/C=C\CC/C=C/CSCC(=O)C(F)(F)F [AKH-217] | reduced | reduced in a dose-dependent manner | reduced | reduce | down-regulated | completely reduced | reduce | completely lost |
| CC/C=C\C/C=C\C/C=C\C/C=C\C/C=C\CCSCC(=O)C(F)(F)F [AVX002] | reduced | reduced in a dose-dependent manner |  |  | down-regulated |  |  |  |
